Measured values: patent US7109333B2, “Heterocyclic compounds” (SmithKline Beecham Corporation, priority 1998, dated 2006)

Tests used:
[1] = system: HN5 head and neck tumor cell line; assay: Methylene blue growth inhibition assay, HN5; format: cell-based; details: Homo sapiens, 72 h; HN5, 3 days; read-out: Cell Proliferation HN5, IC50
Protocol: (§1) Human breast (BT474), head and neck (HN5) and gastric tumor (N87) cell lines were cultured in low glucose DMEM (Life Technologies 12320–032) containing 10% fetal bovine serum (FBS) at 37° C. in a humidified 10% CO2, 90% air incubator. The SV40 transformed human mammary epithelial cell line HB4a was transfected with either human H-ras cDNA (HB4a r4.2) or the human c-erbB2 cDNA (HB4a c5.2). The HB4a clones were cultured in RPMI containing 10% FBS, insulin (5 μg/ml), hydrocortisone (5 μg/ml), supplemented with the selection agent hygromycin B (50 μg/ml). Cells were harvested using trypsin/EDTA, counted using a haemocytometer, and plated in […] of the appropriate media, at the following densities, in a 96-well tissue culture plate (Falcon 3075): BT474 10,000 cells/well, HN5 3,000 cells/well, N87 10,000 cells/well, HB4a c5.2 3,000 cells/well, HB4a r4.2 3,000 cells/well. The next day, compounds were diluted in DMEM containing […] gentamicin, at twice the final required concentration, from 10 mM stock solutions in DMSO. […] of these dilutions were added to the […] of media currently on the cell plates. Medium containing 0.6% DMSO was added to control wells. Compounds diluted in DMEM were added to all cell lines, including the HB4a r4.2 and HB4a c5.2 cell lines. The final concentration of DMSO in all wells was 0.3%. Cells were incubated at 37° C., 10% CO2 for 3 days. Medium was removed by aspiration. Cell biomass was estimated by staining cells with 100 μl per well methylene blue (Sigma M9140, 0.5% in 50:50 ethanol:water), and incubation at room temperature for at least 30 minutes. Stain was removed, and the plates rinsed under a gentle stream of water, and air-dried. To release stain from the cells 100 μl of solubilization solution was added (1% N-lauroyl sarcosine, Sodium salt, Sigma L5125, in PBS), and plates were shaken gently for about 30 minutes. Optical density at 620 nm was measured on a microplate reader. Percent inhibition of cell growth was calculated relative to vehicle treated control wells. Concentration of compound that inhibits 50% of cell growth (IC50) was interpolated using nonlinear regression (Levenberg-Marquardt) and the equation, y=Vmax*(1−(x/(K+x)))+Y2, where “K” was equal to the IC50.

[2] = system: HB4a r4.2 (HB4a transfected with human H-ras cDNA); assay: Methylene blue growth inhibition assay, HB4a ras; format: cell-based; details: 72 h, HB4a r4.2, 3 days, read-out: Cell Proliferation HB4a ras, IC50
Protocol: as §1

[3] = system: BT474 breast tumor cell line; assay: Methylene blue growth inhibition assay, BT474; format: cell-based; details: Homo sapiens, BT-474, 72 h; BT474, 3 days; read-out: Cell Proliferation BT474, IC50
Protocol: as §1

[4] = system: HB4a c5.2 (HB4a transfected with human c-erbB2 cDNA); assay: Methylene blue growth inhibition assay, HB4a erbB2; format: cell-based; details: 72 h, HB4a c5.2, 3 days, read-out: Cell Proliferation HB4a erbB2, IC50
Protocol: as §1

[5] = molecular target: T1, c-erbB-2 (Homo sapiens, UniProt P04626); assay: Substrate phosphorylation assay, erbB2, assay (b) (SPA, 33P-ATP); format: biochemical; details: Tables 1A and 1B
T1 construct: baculovirus expressed, recombinant constructs of the intracellular domains of c-erbB-2 and c-erbB-4; made in house
T1 sequence (P04626 676-1255 limits assumed): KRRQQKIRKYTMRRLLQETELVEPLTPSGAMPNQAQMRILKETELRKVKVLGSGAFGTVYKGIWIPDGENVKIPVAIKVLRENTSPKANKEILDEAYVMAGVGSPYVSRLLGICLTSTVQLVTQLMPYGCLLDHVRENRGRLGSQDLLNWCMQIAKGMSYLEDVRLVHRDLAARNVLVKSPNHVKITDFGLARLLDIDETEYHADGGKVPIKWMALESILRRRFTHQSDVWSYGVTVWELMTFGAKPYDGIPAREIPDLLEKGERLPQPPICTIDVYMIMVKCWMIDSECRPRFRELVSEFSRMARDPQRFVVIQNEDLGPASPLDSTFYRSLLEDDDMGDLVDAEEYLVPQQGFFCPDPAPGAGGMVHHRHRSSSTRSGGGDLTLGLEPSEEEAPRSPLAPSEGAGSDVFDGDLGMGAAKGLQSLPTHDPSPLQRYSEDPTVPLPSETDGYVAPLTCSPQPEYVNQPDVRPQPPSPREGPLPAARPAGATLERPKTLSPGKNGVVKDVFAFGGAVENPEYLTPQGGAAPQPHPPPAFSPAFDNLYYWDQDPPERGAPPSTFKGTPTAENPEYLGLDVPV
Text: The substrate phosphorylation assays use baculovirus expressed, recombinant constructs of the intracellular domains of c-erbB-2 and c-erbB-4 that are constitutively active and EGFr isolated from solubilised A431 cell membranes. The method measures the ability of the isolated enzymes to catalyse the transfer of the g-phosphate from ATP onto tyrosine residues in a biotinylated synthetic peptide (Biotin-[…]. Substrate phosphorylation was detected following either of the following two procedures: a.) c-ErbB-2, c-ErbB4 or EGFr were incubated for 30 minutes, at room temperature, with 10 mM MnCl2, 10 mM ATP, 5 mM peptide, and test compound (diluted from a 5 mM stock in DMSO, final DMSO concentration is 2%) in 40 mM HEPES buffer, pH 7.4. The reaction was stopped by the addition of EDTA (final concentration 0.15 mM) and a sample was transferred to a streptavidin-coated 96-well plate. The plate was washed and the level of phosphotyrosine on the peptide was determined using a Europium-labelled antiphosphotyrosine antibody and quantified with a time-resolved fluorescence technique. b.) ErbB2 was incubated for 50 minutes at room temperature with 15 mM MnCl2, 2 mM ATP, 0.25 mCi [γ-^33P] ATP/well, 5 mM peptide substrate, and test compound (diluted from a 10 mM stock in DMSO, final DMSO concentration is 2%) in 50 mM MOPS pH 7.2. The reaction was terminated by the addition of […] of PBS containing 2.5 mg/ml streptavidin-coated SPA beads (Amersham Inc.), 50 mM ATP, 10 mM EDTA and 0.1% TX-100. The microtitre plates were sealed and SPA beads were allowed to settle for at least six hours. The SPA signal was measured using a Packard Topcount 96-well plate scintillation counter (Packard Instrument Co., Meriden, Conn.).

[6] = system: N87 gastric tumor cell line; assay: Methylene blue growth inhibition assay, N87; format: cell-based; details: Homo sapiens, 72 h; N87, 3 days; read-out: Cell Proliferation N87, IC50
Protocol: as §1

| SMILES | IC50 [1] [µM] | IC50 [3] [µM] | IC50 [5] [µM] | IC50 [6] [µM] | IC50 [2] [µM] | IC50 [4] [µM] |
| --- | --- | --- | --- | --- | --- | --- |
| CS(=O)(=O)CCNCc1nc(-c2ccc3ncnc(Nc4ccc(OCc5ccccc5)c(F)c4)c3c2)cs1 [Example 15, N-[4-(benzyloxy)-3-fluorophenyl]-6-[2-({[2-(methanesulphonyl)ethyl]amino}methyl)-1,3-thiazol-4-yl]-4-quinazolinamine] | < 5 | < 5 | < 0.1 | < 5 | > 50 | < 5 |
| CS(=O)(=O)CCNCc1ccoc1-c1ccc2ncnc(Nc3ccc(OCc4ccccc4)cc3)c2c1 [Example 20, N-[4-(benzyloxy)phenyl]-6-[3-({[2-(methanesulphonyl)ethyl]amino}methyl)-2-furyl]-4-quinazolinamine] | 5 to 25 | < 5 | < 0.1 | < 5 | > 50 | < 5 |
| CS(=O)(=O)CCNCc1nc(-c2ccc3ncnc(Nc4ccc5c(cnn5Cc5cccc(F)c5)c4)c3c2)cs1 [Example 21, N-[1-(3-fluorobenzyl)-1H-indazol-5-yl]-6-[2-({[2-(methanesulphonyl)ethyl]amino}methyl)-1,3-thiazol-4-yl]-4-quinazolinamine] | < 5 | < 5 | < 0.1 | < 5 | 5 to 25 | < 5 |
| CS(=O)(=O)CCNCc1nc(-c2ccc3ncnc(Nc4ccc(OCc5cccc(C(F)(F)F)c5)cc4)c3c2)cs1 [Example 24, 6-[2-({[2-(methanesulphonyl)ethyl]amino}methyl)-1,3-thiazol-4-yl]-N-(4-{[3-(trifluoromethyl)benzyl]oxy}phenyl)-4-quinazolinamine] | < 5 | 5 to 25 | < 0.1 | 5 to 25 | > 50 | 5 to 25 |
| CS(=O)(=O)CCNCc1nc(-c2ccc3ncnc(Nc4ccc(OCc5cccc(F)c5)c(F)c4)c3c2)cs1 [Example 25, N-{3-fluoro-4-[(3-fluorobenzyl)oxy]phenyl}-6-[2-({[2-(methanesulphonyl)ethyl]amino}methyl)-1,3-thiazol-4-yl]-4-quinazolinamine] | < 5 | < 5 | < 0.1 | < 5 | > 50 | < 5 |
| CS(=O)(=O)CCNCc1nc(-c2ccc3ncnc(Nc4ccc5c(cnn5Cc5ccccc5)c4)c3c2)cs1 [Example 26, N-(1-benzyl-1H-indazol-5-yl)-6-[2-({[2-(methanesulphonyl)ethyl]amino}methyl)-1,3-thiazol-4-yl]-4-quinazolinamine] | < 5 | < 5 | < 0.1 | < 5 | 5 to 25 | < 5 |

Second part, led by results:

| IC50 [1] [µM] | IC50 [3] [µM] | IC50 [5] [µM] | IC50 [6] [µM] | SMILES | IC50 [2] [µM] | IC50 [4] [µM] |
| --- | --- | --- | --- | --- | --- | --- |
| < 5 | < 5 | < 0.1 | < 5 | COc1cc2ncnc(Nc3ccc4c(cnn4Cc4ccccc4)c3)c2cc1-c1ccc(CNCCS(C)(=O)=O)o1 [Example 16, N-(1-benzyl-1H-indazol-5-yl)-7-methoxy-6-[5-({[2-(methanesulphonyl)ethyl]amino}methyl)-2-furyl]-4-quinazolinamine] | 5 to 25 | < 5 |
| 5 to 25 | < 5 | < 0.1 | 5 to 25 | CS(=O)(=O)CCNCc1ccc(-c2ccc3ncnc(Nc4ccc(OCc5cccc(C(F)(F)F)c5)cc4)c3c2)o1 [Example 17, 6-[5-({[2-(methanesulphonyl)ethyl]amino}methyl)-2-furyl]-N-(4-{[3-(trifluoromethyl)benzyl]oxy}phenyl)-4-quinazolinamine] | 5 to 25 | 5 to 25 |
| < 5 | < 5 | < 0.1 | < 5 | CS(=O)(=O)CCNCc1ccc(-c2ccc3ncnc(Nc4ccc(OCc5cccc(F)c5)c(F)c4)c3c2)o1 [Example 18, N-{3-fluoro-4-[(3-fluorobenzyl)oxy]phenyl}-6-[5-({[2-(methanesulphonyl)ethyl]amino}methyl)-2-furyl]-4-quinazolinamine] | 5 to 25 | < 5 |
| < 5 | < 5 | < 0.1 | < 5 | CS(=O)(=O)CCNCc1ccc(-c2ccc3ncnc(Nc4ccc(OCc5cccc(Br)c5)cc4)c3c2)o1 [Example 19, N-{4-[(3-bromobenzyl)oxy]phenyl}-6-[5-({[2-(methanesulphonyl)ethyl]amino}methyl)-2-furyl]-4-quinazolinamine] | > 50 | < 5 |
| < 5 | < 5 | < 0.1 | < 5 | CS(=O)(=O)CCNCc1ccc(-c2ccc3ncnc(Nc4ccc(S(=O)(=O)c5ccccc5)cc4)c3c2)o1 [Example 22, 6-[5-({[2-(methanesulphonyl)ethyl]amino}methyl)-2-furyl]-N-[4-(benzenesulphonyl)phenyl]-4-quinazolinamine] | 25 to 50 | < 5 |
| < 5 | < 5 | < 0.1 | < 5 | CS(=O)(=O)CCNCc1nc(-c2ccc3ncnc(Nc4ccc(S(=O)(=O)c5ccccc5)cc4)c3c2)cs1 [Example 23, 6-[2-({[2-(methanesulphonyl)ethyl]amino}methyl)-1,3-thiazol-4-yl]-N-[4-(benzenesulphonyl)phenyl]-4-quinazolinamine] | 25 to 50 | < 5 |
| < 5 | < 5 | < 0.1 | < 5 | CS(=O)(=O)CCNCc1ccc(-c2ccc3ncnc(Nc4ccc(OCc5ccccc5)c(F)c4)c3c2)o1 [Example 27] | 5 to 25 | < 5 |
| < 5 | < 5 | < 0.1 | < 5 | CS(=O)(=O)CCNCc1ccc(-c2ccc3ncnc(Nc4ccc(OCc5ccccc5)c(Cl)c4)c3c2)o1 [Example 28] | 25 to 50 | < 5 |
| < 5 | < 5 | < 0.1 | < 5 | COc1cc2ncnc(Nc3ccc(S(=O)(=O)c4ccccc4)cc3)c2cc1-c1ccc(CNCCS(C)(=O)=O)o1 [Example 33, 6-[5-({[2-(Methanesulphonyl)ethyl]amino}methyl)-2-furyl]-7-methoxy-N-(4-benzenesulphonyl)phenyl-4-quinazolinamine] | < 5 | < 5 |
